Source: patent publication US10807959B2, “WDR5-MLL1 inhibitors and modulators” (Vanderbilt University, priority 2018, dated 2020)

Assays:
[1] = tested on: MV4:11 cells; test: Cellular viability / anti-proliferative activity, CellTiter-Glo, 7 day protocol; format: cell-based, human; conditions: 168 h
Description: Anti proliferative activity using MLL-harboring cell lines. MV4:11 cells are grown in RPMI-1640 media supplemented with 10% FBS and 1% penicillin/streptomycin. Viability assays are performed by dispensing […] into each well of an opaque 384-well plate and adding compounds at the indicated concentrations in a final volume of 32 μL and a final concentration of DMSO of 0.1% for all samples. After a set incubation period, 7 day protocol, the viability of cells in each well is assessed using the CellTiter-Glo assay (Promega), read on a GloMax 96 Microplane Luminometer (Promega). Serial dilutions of each cell type are included in all assays to generate standard curves and determine assay measurements are taken within the dynamic range of the instrument. GI50 values are calculated based on three biological replicates, each with three technical replicates. Data are expressed as mean plus/minus S.E.M.

[2] = biological target: T1, WDR5 (Homo sapiens (Human), UniProt P61964); test: TR-FRET binding assay, displacement of 10mer-Thr-FAM probe from His-tagged WDR5
Description: The LanthaScreenTM Elite Tb-anti-HIS Antibody from ThermoFisher Scientific was used for this purpose. […] The ratio of the 520 and 495 signals are then utilized to generate a dose-response curve to calculate an IC50 value. […] WDR[…] tag protein is used at 2 nM.

[3] = biological target: T1, WDR5; test: Fluorescence polarization anisotropy (FPA) competition assay, displacement of FITC-MLL or 10mer-Thr-FAM peptide; format: binding; conditions: Table B2, WDR5 WIN-site binding affinity; values not less than 1 nM (FPA)
Excerpt: The assay is run in 384-well format and is read on a BioTek Cytation. […] Replicate values are fit to a 4-parameter fit in XLFit to generate a single IC50 value for each compound that is then converted to a Ki value. Experiments are repeated to generate a 2nd, independent Ki value; values from the two experiments are averaged to produce the reported Ki value for the compound.

[4] = cellular proliferation of MV4:11 human cancer cell lines, 7 day
[5] = Inhibition of WDR5 by TR-FRET assay
[6] = Homo sapiens, MV4:11 leukemia cells after a 7 day incubation period

Row | GI50 [1, 6] [nM] | Ki [3] [nM] | Ki [2] [nM] | Compound | GI50 [1, 4] [nM] | Ki [2, 5] [nM]
1 |  |  |  | CNc1c(C(=O)N(C)Cc2cc(OC)cc(OC)c2)cc(CNC2=NCCC2)cc1-c1ccc(F)cc1C [Example 170, 5-(((3,4-dihydro-2H-pyrrol-5-yl)amino)methyl)-N-(3,5-dimethoxybenzyl)-4′-fluoro-N,2′-dimethyl-2-(methylamino)-[1,1′-biphenyl]-3-carboxamide] | 4700 | 19
2 |  |  |  | CNc1c(C(=O)N(C)Cc2cc(OC)cc(OC)c2)cc(CNC2=NCCN2)cc1-c1ccc(F)cc1C [Example 171, 5-(((4,5-Dihydro-1H-imidazol-2-yl)amino)methyl)-N-(3,5-dimethoxybenzyl)-4′-fluoro-N,2′-dimethyl-2-(methylamino)-[1,1′-biphenyl]-3-carboxamide] | 3800 | 19
3 |  |  |  | COc1cc(CNC(=O)c2cc(CNC3=NCCC3)cc(-c3ccc(F)cc3C)c2NC(C)=O)cc(OC)c1 [Example 172, 2-Acetamido-5-(((3,4-dihydro-2H-pyrrol-5-yl)amino)methyl)-N-(3,5-dimethoxybenzyl)-4′-fluoro-2′-methyl-[1,1′-biphenyl]-3-carboxamide] | 240 | 2.1
4 |  |  |  | COc1cc(CNC(=O)c2cc(CNC3=NCCN3)cc(-c3ccc(F)cc3C)c2NC(C)=O)cc(OC)c1 [Example 173, 2-Acetamido-5-(((4,5-dihydro-1H-imidazol-2-yl)amino)methyl)-N-(3,5-dimethoxybenzyl)-4′-fluoro-2′-methyl-[1,1′-biphenyl]-3-carboxamide] | 530 | 7.2
5 | 3280 | 4.01 |  | O=C(NCc1ccc(Cl)c(Cl)c1)c1ccc(F)c(CNC2=NCCN2)c1 [Example B6] |  | 
6 | > 30000 | 17.8 |  | COc1cc(CNC(=O)c2cccc(CNC3=NCCN3)c2F)cc(OC)c1 [Example B21] |  | 
7 | 536 |  | 0.115 | Cc1cc(CNC(=O)c2cc(CNC3=NCCN3)cc(-c3cnccc3C)c2)ccc1Cl [Example B88] |  | 
8 | 701 |  | 0.228 | COc1ccnc(CNC(=O)c2cc(CNC3=NCCN3)cc(-c3ccc(F)cc3C)c2)c1 [Example B114] |  | 
9 | 109 |  | 0.089 | Cc1cc(CNC(=O)c2cc(CNC3=NCCC3)cc(-c3ccc(F)nc3C)c2)ccc1Cl [Example B129] |  | 
